Laboratory results from US12022844B2, “Nutritional composition, food/drink composition using nutritional composition, and modified milk powder using nutritional composition” (priority 2018, dated 2024).

Legend:
[1] = system: Bifidobacterium peseudocatenulatum ATCC27919; assay: Single bacterial culturing with HMO as sugar source, OD650; assay type: cell-based, Bifidobacterium pseudocatenulatum; details: ATCC 27919^T, sugar source 2%, 8 h, Table 6
Description: (§1) A10% solution of glucose (manufactured by Nakarai Tesque Inc.), and 2′-FL ((≥95%) Funakoshi, available from sigma), and LNnT (manufactured by ELICITYL) as examples of HMOs was prepared with ion exchanged water, and was subjected to sterile filtration using Millex-GV (SLGV033RS).
(§2) Lactobacilli MRS Broth (BD) (0.05% L-Cysteine Hydrochloride for Bacteria of the genus Bifidobacterium) was added to strains of Table 1 below (bacteria belonging to Bifidobacterium bifidum) and Table 2 below. After a sterilization treatment, 3% of the bacterial solution was inoculated, and anaerobically cultured (pre-pre cultured) at 37° C. for 16 h. […]
(§3) OD650 was measured from each well in the plates in the above (4) and the above (5) before (0 h) culturing and after (8 h) culturing, by MICROPLATE READER SH-9000 (manufactured by CORONA ELECTRIC). […] After the DNA extraction, the number of proliferating bacteria of Bifidobacteria/lactobacilli was analyzed by using the bacterial species-specific primer noted in Table 4, by a quantitative PCR method (see “Structural analysis of intestinal flora”—analysis of bacterial flora in human feces using quantitative PCR—by Kouichi Watanabe, Enterobacteriological journal, 20:35-42, 2006).
(§4) Regarding strains in Table 2, each strain was cultured as a single bacterium by 2′-FL or LNnT (HMOs) as a sugar source, and OD650 was measured. […]

[2] = system: Lactobacillus acidophhilus ATCC4356; assay: as above; assay type: cell-based, Lactobacillus acidophilus; details: ATCC 4356^T, sugar source 2%, 8 h, Table 6
Description: as §1, §2, §3, §4

[3] = system: Bifidobacterium bifidum ATCC29521; assay: as above; assay type: cell-based; details: ATCC 29521^T, sugar source 2%, anaerobic 37° C., 8 h, Table 5
Description: as §1
(§5) Lactobacilli MRS Broth (BD) (0.05% L-Cysteine Hydrochloride for Bacteria of the genus Bifidobacterium) was added to strains of Table 1 below (bacteria belonging to Bifidobacterium bifidum) and Table 2 below. After a sterilization treatment, 3% of the bacterial solution was inoculated, and anaerobically cultured (pre-pre cultured) at 37° C. for 16 h.
(§6) The following day, 1% glucose was added to a modified BL agar medium (“Studies on Bifidobacteria” by Tomotari Mitsuoka, p. 306, Japan Bifidus Foundation, issued in 1994) noted in Table 3, for preparation. After a sterilization treatment, 3% of the pre-pre cultured bacterial solution was inoculated, and anaerobically pre-cultured (pre-cultured) at 37° C. for 12 h.
(§7) The pre-cultured bacterial solution was collected and washed once with a sterile physiological saline solution. Then, mass-up was performed to an equal volume with the modified BL agar medium (“Studies on Bifidobacteria” by Tomotari Mitsuoka, p. 306, Japan Bifidus Foundation, issued in 1994) noted in Table 3 to prepare a suspended bacterial solution.
(§8) The modified BL agar medium (“Studies on Bifidobacteria” by Tomotari Mitsuoka, p. 306, Japan Bifidus Foundation, issued in 1994) noted in Table 3 was prepared at a capacity of 60%, and was subjected to an autoclave sterilization treatment. Then, 40% of each sugar solution prepared in (1) was aseptically added so as to prepare a medium with a sugar concentration of 4%.
(§9) The medium prepared in the above (3) was dispensed at a capacity that is half the capacity for culturing in a 96-well plate, and the bacterial solution prepared in the above (2) was dispensed at a remaining half capacity such that the bacterial solution had 6%. Then, a final sugar concentration was set to 2%. The plate into which the bacterial solution was dispensed was anaerobically cultured at 37° C. for 8 h.
(§10) OD650 was measured from each well in the plates in the above (4) and the above (5) before (0 h) culturing and after (8 h) culturing, by MICROPLATE READER SH-9000 (manufactured by CORONA ELECTRIC). After turbidity measurement, microbial cells were collected, and DNA extraction was performed. After the DNA extraction, the number of proliferating bacteria of Bifidobacteria/lactobacilli was analyzed by using the bacterial species-specific primer noted in Table 4, by a quantitative PCR method (see “Structural analysis of intestinal flora”—analysis of bacterial flora in human feces using quantitative PCR—by Kouichi Watanabe, Enterobacteriological journal, 20:35-42, 2006).
Regarding bacteria belonging to Bifidobacterium bifidum in Table 1, each strain was cultured as a single bacterium by 2′-FL or LNnT (HMOs) as a sugar source, and OD650 was measured. Table 5 illustrates OD650 increase values after seven strains of the bacteria belonging to Bifidobacterium bifidum in Table 1 were cultured for 8 h by 2′-FL or LNnT as a sugar source.

[4] = system: strains in Table 2 except for Bifidobacterium infantis; assay: Availability of HMOs by probiotics (single culturing, summary); assay type: cell-based; details: single bacterial culturing, 8 h; summary of Tables 6 and 7
Description: as §9, §10
(§11) Regarding strains in Table 2, each strain was cultured as a single bacterium by 2′-FL or LNnT (HMOs) as a sugar source, and OD650 was measured. The results for 2′-FL are noted in Table 6 below, and the results for LNnT are noted in Table 7 below.

[5] = system: Lactobacillus rhamnosus ATCC7469; assay: Single bacterial culturing with HMO as sugar source, OD650; assay type: cell-based; details: ATCC 7469^T, sugar source 2%, 8 h, Table 6
Description: as §1, §5, §6, §7, §8, §9, §10, §11

[6] = system: Bifidobacterium animalis subsp lactis DSM10140; assay: as above; assay type: cell-based; details: DSM 101407, sugar source 2%, 8 h, Table 6
Description: as §1, §5, §6, §7, §8, §9, §10, §11

[7] = system: Bifidobacterium breve ATCC15700; assay: as above; assay type: cell-based; details: sugar source 2%, 8 h, Table 6
Description: as §1, §5, §6, §7, §8, §9, §10, §11

[8] = system: Lactobacillus gasseri ATCC33323; assay: as above; assay type: cell-based; details: ATCC 33323^T, sugar source 2%, 8 h, Table 6
Description: as §1, §5, §6, §7, §8, §9, §10, §11

[9] = system: Bifidobacterium longum subsp infantis ATCC15697; assay: as above; assay type: cell-based; details: ATCC 156971, sugar source 2%, 8 h, Table 6
Description: as §1, §5, §6, §7, §8, §9, §10, §11

[10] = system: Lactobacillus plantarum ATCC14917; assay: as above; assay type: cell-based; details: ATCC 14917^T, sugar source 2%, 8 h, Table 6
Description: as §1, §5, §6, §7, §8, §9, §10, §11

[11] = system: Bifidobacterium pseudolongum ATCC25526; assay: as above; assay type: cell-based; details: ATCC 25526^T, sugar source 2%, 8 h, Table 6
Description: as §1, §5, §6, §7, §8, §9, §10, §11

[12] = system: Bifidobacterium longum subsp longum ATCC15707; assay: as above; assay type: cell-based; details: ATCC 15707^T, sugar source 2%, 8 h, Table 6
Description: as §1, §5, §6, §7, §8, §9, §10, §11

[13] = system: Bifidobacterium adolescentis ATCC15703; assay: as above; assay type: cell-based; details: ATCC 15703^T, sugar source 2%, 8 h, Table 6
Description: as §1, §5, §6, §7, §8, §9, §10, §11

[14] = system: bacteria belonging to Bifidobacterium bifidum in Table 1; assay: Availability of HMOs by bacteria belonging to Bifidobacterium bifidum (single culturing, summary); assay type: cell-based; details: single bacterial culturing, 8 h; summary of Table 5
Description: as §9, §10
Regarding bacteria belonging to Bifidobacterium bifidum in Table 1, each strain was cultured as a single bacterium by 2′-FL or LNnT (HMOs) as a sugar source, and OD650 was measured. […]

[15] = system: Bifidobacterium animalis subsp lactis MCC-525; assay: Single bacterial culturing with HMO as sugar source, OD650; assay type: cell-based; details: sugar source 2%, 8 h, Table 7
Description: as §1, §5, §6, §7, §8, §9, §10, §11

[16] = system: Bifidobacterium longum subsp longum BB536; assay: as above; assay type: cell-based; details: sugar source 2%, 8 h, Table 7
Description: as §1, §5, §6, §7, §8, §9, §10, §11

2′-fucosyllactose [2′-FL]
OD650 increase value [1]: 0.02 | OD650 increase value [2]: 0.01 | OD650 increase value [3]: 0.060 | assimilability by strains in Table 2 except for Bifidobacterium infantis [4]: had no assimilability in 2′-FL or LNnT (HMOs), or a low assimilability | OD650 increase value [5]: 0.058 | OD650 increase value [6]: 0.027 | OD650 increase value [7]: 0.041 | OD650 increase value [8]: −0.017 | OD650 increase value [9]: 0.344 | OD650 increase value [10]: 0.013 | OD650 increase value [11]: 0.022 | OD650 increase value [12]: 0.029 | OD650 increase value [13]: −0.01 | assimilability by all the bacteria belonging to Bifidobacterium bifidum in Table 1 [14]: had assimilability

CC(=O)N[C@H]1[C@H](O[C@H]2[C@@H](O)[C@@H](CO)O[C@@H](O[C@H]3[C@H](O)[C@@H](O)C(O)O[C@@H]3CO)[C@@H]2O)O[C@H](CO)[C@@H](O[C@@H]2O[C@H](CO)[C@H](O)[C@H](O)[C@H]2O)[C@@H]1O (mixture of isomers) [LNnT, lacto-N-neotetraose]
OD650 increase value [3]: 0.008 | assimilability by strains in Table 2 except for Bifidobacterium infantis [4]: had no assimilability in 2′-FL or LNnT (HMOs), or a low assimilability | OD650 increase value [15]: 0.096 | OD650 increase value [16]: 0.053 | assimilability by all the bacteria belonging to Bifidobacterium bifidum in Table 1 [14]: had assimilability
